This note sets out measurements from patent US6805865B1, “Compositions and methods for treating cancer and hyperproliferative disorders” (EntreMed, Inc., priority 1993, dated 2004).

In one assay the test system is HUVEC. In words: bFGF stimulated HUVEC proliferation in the presence of bFGF peptides. In kind it is cell-based. The settings on record: free synthetic peptide, in vitro.
Another assay concerns bFGF. In words: Serum antibody response (ELISA) after vaccination with bFGF peptides conjugated to lipid A liposomes. It counts as in vivo. The settings on record: C57BL/6J mice, peptide covalently conjugated to liposomal vesicles containing lipid A. An excerpt:
Both peptides A and B were incorporated into lipid A containing liposomes and used separately in a vaccination protocol. Peptides were conjugated to liposomes according to the methods and protocols described above in Example 8. Mice were immunized and boosted twice, bled and pooled serum analyzed for anti-peptide antibody titer and crossreactivity to bFGF by ELISA.
The comparison of titers and crossreactivity for serum from mice vaccinated with whole bFGF or with the liposomal heparin binding domain peptide of bFGF vaccine is shown in FIG. 4 and a comparison of the titers and crossreactivity for serum from mice vaccinated with whole bFGF or the liposomal receptor binding domain peptide of bFGF vaccine is shown in FIG. 5.
In general terms: In an ELISA, binding on a coated surface is turned into a signal by an enzyme label.

The subject of the next assay is B16BL6. In words: B16BL6 experimental lung metastasis after intravenous challenge of vaccinated mice. In kind it is in vivo. The settings on record: peptide conjugated to liposomes, vaccinated and boosted, intravenous melanoma challenge, 14 days.
Assay [1] deals with bFGF-induced vascularization. The assay can be described thus: bFGF-containing gelatin sponge implanted on liver of vaccinated mice, histology. The settings on record: peptide-liposome vaccinated mice, sponge with recombinant human bFGF on liver, 14 days after implantation. In kind it is in vivo. An excerpt:
Following the vaccination protocol, mice were challenged with bFGF impregnated sponges and neovascularization assessed after 14 days, the results are shown in FIG. 6.
In order to determine if generation of antibody to the bFGF molecule has an effect on bFGF-induced vascularization, gelatin sponges containing recombinant human bFGF were implanted onto the left lobe of the liver of mice following vaccination with the liposomal lipid A controls, liposomes containing the heparin binding domain peptide, liposome containing the receptor binding domain peptide, or PBS. Fourteen days following implantation, the sponges were removed. Vascularity and leukocyte infiltration were assessed histologically. Well defined blood vessels containing red blood cells were evident in sponges removed from mice vaccinated with control preparations (liposomal lipid A and PBS). In addition, there was an abundant amount of cellular infiltration, consisting of white blood cells and fibroblasts. […] Although red blood cells were present in the histological sections of the sponge taken from mice vaccinated with the heparin binding domain peptide, they lacked well defined structures surrounding them.

In a further assay the test system is B16BL6 melanoma. In words: Growth of B16BL6 tumor cells in vitro with peptide and bFGF (cell counts). In kind it is cell-based, murine. The settings on record: 10,000 cells/well, various peptide concentrations, media with 5 ng/ml bFGF. Here is the method: B16BL6 melanoma were plated at 10,000 cells/well in a 24 well plate and incubated overnight. […] This example provides methods useful for selecting peptides useful for the methods and compositions of the present invention.

A further assay has as its system B16-BL6 melanoma cells. The assay can be described thus: B16-BL6-containing gelatin sponge implanted on liver of vaccinated mice, histology. It counts as in vivo. The settings on record: peptide-liposome vaccinated mice, 14 days after implantation. An excerpt: In order to determine if vaccination could inhibit the angiogenesis induced by a tumor, gelatin sponges were implanted containing B16-BL6 melanoma cells onto the liver of mice following vaccination with control liposomes (liposomal lipid A), liposomes linked to the heparin binding domain peptide, liposomes linked to the receptor binding domain peptide, or PBS. Fourteen days following implantation, the sponges are removed and examined histologically. Sponges removed from mice vaccinated with liposomal lipid A and PBS contained viable and proliferating B16BL6 tumor cells. In addition, neovascularization into the sponge was abundant. […] Similar to findings from sponges containing bFGF, there was a tremendous amount of red blood cells lacking defined structures surrounding them.

A further assay concerns LLC-LM. The assay can be described thus: LLC-LM experimental metastatic model, intravenous challenge, lung weight. It counts as in vivo, mice. The settings on record: peptide in liposome format, 3 inoculations two weeks apart, day 17, based on lung weight, versus control. Here is the method:
Efficacy of vaccination of mice with the heparin binding domain peptide bFGF in a liposome format was determined in the LLC-LM experimental metastatic model.
Mice were vaccinated with the heparin binding domain peptide of bFGF in a liposome format using the same vaccination regimen as in the B16BL6 experiments above (3 inoculations two weeks apart). Two weeks following the final boost, mice were intravenously challenged with LLC-LM. At day 17, the control (no treatment) mice began to succumb to the tumor burden in the lung. All groups were sacrificed. Lungs were removed and analyzed based on lung weight. Normal lung weight was subtracted out of the treated and non-treated groups to determine the T/C. Vaccination with the heparin binding domain peptide inhibited the growth and development of LLC-LM experimental metastasis by 94% when compared to control. These lungs have been photographed and will be assessed histologically.

As to “SNNYNTYRSRKYSSWYVALKR (listed as Homo sapiens) [receptor binding domain peptide, used free or conjugated to lipid A liposomes]”, the “bFGF stimulated HUVEC proliferation” value with HUVEC is recorded as “inhibited”. For the same sequence, the “antibody response in serum” value in the assay with bFGF is “no antibody response”.
“YCKNGGFFLRIHPDGRVDGVREKSDPHIKLQLQAEERGV VSIKGV (YCKNGGFFLRIHPDGRVDGVREKSDPHIKLQLQAEERGVVSIKGV; listed as Homo sapiens) [heparin binding domain peptide, used free or conjugated to lipid A liposomes]”: the “mean number of lung metastases” value in the assay on B16BL6 is listed as “significantly reduces”. The “cellular infiltration and neovascularization of bFGF sponge” value in assay [1] is “lack of cellular infiltration and neovascularization”. Moreover, the “bFGF stimulated HUVEC proliferation” value is “inhibitory effect” in the assay on HUVEC and “inhibited” with HUVEC (listed as heparin-binding domain peptide). Further, in the assay with B16BL6 melanoma, the “growth of B16BL6 cells, cell counts” value is “no significant effect”. Moreover, the “antibody response in serum” value with bFGF is given as “antibody response”. Further, the “neovascularization and tumor growth in B16-BL6 sponge” value in the assay on B16-BL6 melanoma cells was “blocked neovascularization and caused ablation of tumor growth and development”. The “inhibition of growth and development of LLC-LM experimental metastasis” value in the assay with LLC-LM is 94%.
